These results are taken from PMC6688508 (Journal of medicinal chemistry, 2019).

Entries after “also recorded” stand apart in the source; their conditions may differ.

Test [1] addresses T1, human D1 (Homo sapiens, UniProt P21728). Put plainly: BRET β-arrestin2 recruitment assay. Conditions: for β-arrestin2 recruitment activity in words: D1R BRET assay.
Test [2] addresses T1, human D1. Put plainly: D1R GS-mediated GS-cAMP accumulation assay. Conditions: for fold reduced potency in the GS-cAMP accumulation assay compared to 1: compared to compound 1; for GS-cAMP accumulation activity in words: D1R GloSensor assay. Background: cAMP levels reflect the balance of adenylyl cyclase and phosphodiesterase activity.

T1 sequence (P21728 whole entry): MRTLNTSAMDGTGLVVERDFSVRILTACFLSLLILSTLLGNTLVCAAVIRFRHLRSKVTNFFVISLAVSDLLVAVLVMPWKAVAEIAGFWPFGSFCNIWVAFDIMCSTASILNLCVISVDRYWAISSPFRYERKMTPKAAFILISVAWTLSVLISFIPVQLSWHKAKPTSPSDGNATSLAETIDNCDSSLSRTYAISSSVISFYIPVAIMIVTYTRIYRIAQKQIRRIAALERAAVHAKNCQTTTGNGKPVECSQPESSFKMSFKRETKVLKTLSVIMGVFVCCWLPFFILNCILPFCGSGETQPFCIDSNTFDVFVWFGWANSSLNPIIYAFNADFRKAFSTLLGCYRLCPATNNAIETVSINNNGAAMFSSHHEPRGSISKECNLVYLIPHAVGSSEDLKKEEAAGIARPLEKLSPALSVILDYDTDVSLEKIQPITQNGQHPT

As to `Cc1cc(Oc2nccc3occc23)ccc1-c1c(C)nc2cnccn12` [Compound 4, 4-(3-Methyl-4-(2-methylimidazo[1,2-a]pyrazin-3-yl)phenoxy)-furo[3,2-c]pyridine], in test [1] (compared to compound 1), the “fold reduction in potency for β-arrestin2 recruitment compared to 1” value is 22 fold. Moreover, the “fold reduced potency in the GS-cAMP accumulation assay compared to 1” value in test [2] stood at 23 fold. In the case of `CCOc1ncnc(C)c1-c1ccc(Oc2nccc3occc23)cc1C` [Compound 8, 4-(4-(4-Ethoxy-6-methylpyrimidin-5-yl)-3-methylphenoxy)furo-[3,2-c]pyridine], the “β-arrestin2 recruitment activity in words” value in test [1] is reported as “not active in the β-arrestin2 recruitment assay”.

Take `Cc1cc(Oc2nccc3occc23)ccc1-c1cncc(C(N)=O)c1` [Compound 12, 5-(4-(Furo[3,2-c]pyridin-4-yloxy)-2-methylphenyl)nicotinamide]: the “β-arrestin2 recruitment activity in words” value in test [1] was “inactive in the β-arrestin2 recruitment assay”. On the same count and under the same terms, with `Cc1cc(Oc2ccccn2)ccc1-c1c(C)ncc2nccn12` [Compound 33, 6-Methyl-5-(2-methyl-4-(pyridin-2-yloxy)phenyl)imidazo[1,2-a]-pyrazine] the entry was “very weak activity in the β-arrestin2 recruitment assay”; with `FC(F)(F)c1cc(Oc2nccc3occ(C4CC4)c23)ccc1-c1cccc2nccn12` [Compound 44, 3-Cyclopropyl-4-(4-(imidazo[1,2-a]pyridin-5-yl)-3-(trifluoromethyl)phenoxy)furo[3,2-c]pyridine], “abolished β-arrestin2 recruitment”. Still for that read-out and setting: with `COc1ccc(-c2ccc(Oc3nccc4occc34)cc2C)c(C)n1` [Compound 11, 4-(4-(6-Methoxy-2-methylpyridin-3-yl)-3-methylphenoxy)furo-[3,2-c]pyridine] the entry was “inactive in the β-arrestin2 recruitment assay”; with `Cc1ncc2nccn2c1-c1cc(F)c(Oc2nccc3occc23)c(F)c1` [Compound 19, 4-(2,6-Difluoro-4-(6-methylimidazo[1,2-a]pyrazin-5-yl)-phenoxy)furo[3,2-c]pyridine], “eliminated β-arrestin2 recruitment activity”; with `Cc1cc(Oc2nccc3occ(C4CC4)c23)ccc1-c1c(C)ncc2nccn12` [Compound 26, 3-Cyclopropyl-4-(3-methyl-4-(6-methylimidazo[1,2-a]pyrazin-5-yl)phenoxy)furo[3,2-c]pyridine], “diminished β-arrestin2 recruitment activity”.

With `Cc1ncc2nccn2c1-c1ccc(Oc2nccc3occc23)c(C(F)(F)F)c1` [Compound 18, 4-(4-(6-Methylimidazo[1,2-a]pyrazin-5-yl)-2-(trifluoromethyl)-phenoxy)furo[3,2-c]pyridine], in test [1], the “β-arrestin2 recruitment activity in words” value is “completely devoid of activity in both the G protein and β-arrestin2 recruitment assays”. In addition, the “GS-cAMP accumulation activity in words” value in test [2] is “completely devoid of activity in both the G protein and β-arrestin2 recruitment assays”. As to `FC(F)(F)c1cc(Oc2nccc3ccsc23)ccc1-c1cccc2nccn12` [Compound 46, 7-(4-(Imidazo[1,2-a]pyridin-5-yl)-3-(trifluoromethyl)phenoxy)-thieno[2,3-c]pyridine], the “β-arrestin2 recruitment activity in words” value in test [1] was “minimal β-arr2 recruitment; also recorded: greatly weakened”. For the compound `FC(F)(F)c1cc(-c2cccc3nccn23)ccc1Oc1nccc2occc12` [Compound 42, 4-(4-(Imidazo[1,2-a]pyridin-5-yl)-2-(trifluoromethyl)phenoxy)-furo[3,2-c]pyridine], the “β-arrestin2 recruitment activity in words” value in test [1] is “inactive in both G protein and β-arrestin2 recruitment assays”. In test [2], the “GS-cAMP accumulation activity in words” value is “inactive in both G protein and β-arrestin2 recruitment assays”. `Cc1cc(-c2c(C)ncc3nccn23)ccc1Oc1nccc2occc12` [Compound 14, 4-(2-Methyl-4-(6-methylimidazo[1,2-a]pyrazin-5-yl)phenoxy)-furo[3,2-c]pyridine]: in test [1], the “β-arrestin2 recruitment activity in words” value is “completely eliminated β-arrestin2 recruitment activity”.

With `Cc1cc(Oc2nccc3occc23)cc(C)c1-c1cccc2nccn12` [Compound 39, 4-(4-(Imidazo[1,2-a]pyridin-5-yl)-3,5-dimethylphenoxy)furo[3,2-c]pyridine], the “β-arrestin2 recruitment activity in words” value in test [1] was “completely inactive”. In test [2], the “GS-cAMP accumulation activity in words” value is “completely inactive”. On to `Cc1cc(Oc2nccc3occc23)ccc1-c1ccc(C#N)cn1` [Compound 13, 6-(4-(Furo[3,2-c]pyridin-4-yloxy)-2-methylphenyl)nicotinonitrile], for which, in test [1], the “β-arrestin2 recruitment activity in words” value was “inactive in the β-arrestin2 recruitment assay”. Regarding `Cc1ncc2nccn2c1-c1ccc(Oc2nccc3occc23)c(C)c1C` [Compound 15, 4-(2,3-Dimethyl-4-(6-methylimidazo[1,2-a]pyrazin-5-yl)-phenoxy)furo[3,2-c]pyridine], the “β-arrestin2 recruitment activity in words” value in test [1] is “inactive in β-arrestin2 recruitment”. Take `FC(F)(F)c1cc(Oc2nccc3ccccc23)ccc1-c1cccc2nccn12` [Compound 45, 1-(4-(Imidazo[1,2-a]pyridin-5-yl)-3-(trifluoromethyl)phenoxy)-isoquinoline]: the “β-arrestin2 recruitment activity in words” value in test [1] is reported as “β-arrestin2 recruitment still eliminated”. On the same count and under the same terms, the same measure for `Cc1cc(-c2cccc3nccn23)ccc1Oc1nccc2occc12` [Compound 37, 4-(4-(Imidazo[1,2-a]pyridin-5-yl)-2-methylphenoxy)furo[3,2-c]-pyridine]: “eliminated β-arrestin2 recruitment activity”; for `Cc1cc(Oc2cccc3occc23)ccc1-c1c(C)ncc2nccn12` [Compound 27, 5-(4-(Benzofuran-4-yloxy)-2-methylphenyl)-6-methylimidazo-[1,2-a]pyrazine]: “inactivity for β-arrestin2 recruitment”. The same measure, in the same setting: with `FC(F)(F)c1cc(Oc2ccccn2)ccc1-c1cccc2nccn12` [Compound 49, 5-(4-(Pyridin-2-yloxy)-2-(trifluoromethyl)phenyl)imidazo[1,2-a]-pyridine] the entry was “no activity in the β-arrestin2 pathway”.

Take `Cc1cc(Oc2nccn3ccnc23)ccc1-c1c(C)ncc2nccn12` [Compound 31, 5-(4-(Imidazo[1,2-a]pyrazin-8-yloxy)-2-methylphenyl)-6-methylimidazo[1,2-a]pyrazine]: in test [1], the “β-arrestin2 recruitment activity in words” value was “β-arrestin2 recruitment was undetectable”. Same read-out and setting: the same measure for `Cc1cc(Oc2nccc3occc23)ccc1-c1nc(N)cnc1C` [Compound 7, 6-(4-(Furo[3,2-c]pyridin-4-yloxy)-2-methylphenyl)-5-methylpyrazin-2-amine]: “minimal β-arr2 recruitment”; for `Fc1cc(-c2cccc3nccn23)cc(F)c1Oc1nccc2occc12` [Compound 43, 4-(2,6-Difluoro-4-(imidazo[1,2-a]pyridin-5-yl)phenoxy)furo[3,2-c]pyridine]: “minimal β-arrestin2 recruitment”; for `Cc1cc(Nc2nccc3occc23)ccc1-c1c(C)ncc2nccn12` [Compound 20, N-(3-Methyl-4-(6-methylimidazo[1,2-a]pyrazin-5-yl)phenyl)furo-[3,2-c]pyridin-4-amine]: “only minimally active in the β-arrestin2 recruitment assay”. On the same count and under the same terms, the same measure for `FC(F)(F)c1cc(Oc2nccn3cccc23)ccc1-c1cccc2nccn12` [Compound 47, 5-(4-(Pyrrolo[1,2-a]pyrazin-1-yloxy)-2-(trifluoromethyl)phenyl)-imidazo[1,2-a]pyridine]: “completely abrogated”. As for `Cc1cc(Oc2nccc3[nH]ncc23)ccc1-c1c(C)ncc2nccn12` [Compound 32, 4-(3-Methyl-4-(6-methylimidazo[1,2-a]pyrazin-5-yl)phenoxy)-1H-pyrazolo[4,3-c]pyridine], the “β-arrestin2 recruitment activity in words” value in test [1] is listed as “not recovered”.

For the compound `Cc1cc(Oc2nccc3ccccc23)ccc1-c1c(C)ncc2nccn12` [Compound 28, 1-(3-Methyl-4-(6-methylimidazo[1,2-a]pyrazin-5-yl)phenoxy)-isoquinoline], the “β-arrestin2 recruitment activity in words” value in test [1] is “inactive for β-arrestin2 recruitment”.

Regarding `Cc1ncc2nccn2c1-c1ccc(Oc2nccc3occc23)cc1C(F)(F)F` [Compound 17, 4-(4-(6-Methylimidazo[1,2-a]pyrazin-5-yl)-3-(trifluoromethyl)-phenoxy)furo[3,2-c]pyridine], the “β-arrestin2 recruitment activity in words” value in test [1] is “potent full agonist of both signaling pathways”. In addition, the “GS-cAMP accumulation activity in words” value in test [2] is recorded as “potent full agonist of both signaling pathways”. For `Cc1c(Oc2nccc3occc23)ccc(-c2cccc3nccn23)c1C` [Compound 38, 4-(4-(Imidazo[1,2-a]pyridin-5-yl)-2,3-dimethylphenoxy)furo[3,2-c]pyridine], in test [1], the “β-arrestin2 recruitment activity in words” value was “β-arrestin2 recruitment was eliminated”. Turning to `FC(F)(F)c1cc(Oc2cc(N3CCCCC3)ccn2)ccc1-c1cccc2nccn12` [Compound 50, 5-(4-((4-(Piperidin-1-yl)pyridin-2-yl)oxy)-2-(trifluoromethyl)-phenyl)imidazo[1,2-a]pyridine], in test [1], the “β-arrestin2 recruitment activity in words” value was “inactive in both the GS and β-arrestin2 pathways”. For the same compound, the “GS-cAMP accumulation activity in words” value in test [2] was “inactive in both the GS and β-arrestin2 pathways”. For the compound `Cc1cc(Oc2ncccc2Br)ccc1-c1c(C)ncc2nccn12` [Compound 34, 5-(4-((3-bromopyridin-2-yl)oxy)-2-methylphenyl)-6-methylimidazo[1,2-a]pyrazine], the “β-arrestin2 recruitment activity in words” value in test [1] is “completely inactive in both pathways”. Further, the “GS-cAMP accumulation activity in words” value in test [2] is “completely inactive in both pathways”.

Regarding `COC(=O)c1cccn2c(-c3ccc(Oc4nccc5occc45)cc3C)cnc12` [Compound 6, Methyl-3-(4-(furo[3,2-c]pyridin-4-yloxy)-2-methylphenyl)-imidazo[1,2-a]pyridine-8-carboxylate], the “β-arrestin2 recruitment activity in words” value in test [1] is reported as “no detectable β-arrestin2 recruitment activity”. For the compound `Cc1cc(Oc2nccc3occc23)ccc1-c1cccc2nccn12` [Compound 5, 4-(4-(Imidazo[1,2-a]pyridin-5-yl)-3-methylphenoxy)furo[3,2-c]-pyridine], the “fold reduced potency in the GS-cAMP accumulation assay compared to 1” value in test [2] is reported as “approximately 10 fold”.
